This is an account of results in PubChem BioAssay AID179 (DTP/NCI, 2004).

This assay concerns CEM cells HIV-1 protection, formazan growth assay. The experiment in a line: NCI AIDS Antiviral Assay. As to conditions: for IC50: measured here: growth of uninfected CEM cells. In a few lines: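 Human CEM cells, uninfected and HIV-1-infected, exposed to five drug concentrations; growth measured by soluble formazan assay and scored as percent protection from infection, with protecting compounds retested.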

The structures appear in SMILES notation. Values joined by “and” are separate entries in the source; they are usually repeats but may differ in a detail not shown here. Equal entries are not always repeated. Active and inactive are the calls of the source.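 Rule for the calls: active = compounds giving half or more protection of infected cells from virus-caused growth loss, again on retest; inactive = the rest.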

Take `CCOC(=O)Nc1cc(C)c(NC(=O)CN(CC)CC)c(C)c1`: the EC50 is greater than 200 µM and the IC50 was greater than 200 µM. With `COC(CC1(OC)OC(=O)C=C1N)OC` (configuration not stated), the outcome was inactive. Turning to `COC(=O)C(CCS(=O)(=O)CC(=O)C(=O)Nc1cccc(C(C)=O)c1)C(=O)OC`, the result was inactive. Take `COC1N(C2CC(N=[N+]=[N-])C(CO)O2)C(=O)NC(=O)C1(C)Br` (configuration not stated): the EC50 is 0.00479 µM and 0.00263 µM and 0.0049 µM; the IC50 was 40.7 µM and 38.9 µM and 16.2 µM. Regarding `CCOC(=O)CN(c1sc(C)c(CC)c1C(=O)OCC)S(=O)(=O)c1ccc(C)cc1`, the EC50 was greater than 200 µM and the IC50 is 10.2 µM. On the same counts, the results for `COC(=O)c1ccccc1CC1Cc2ccc3c(c2C1=O)CCCC3` (configuration not stated) are greater than 200 µM and greater than 200 µM. Consider `Cc1cn(Cc2ccccc2CCO)c(=S)[nH]c1=O`, for which the EC50 was greater than 912 µM and the IC50 was greater than 912 µM. Take `Clc1cc(OCC23CC4CC(CC(C4)C2)C3)nc(OCC23CC4CC(CC(C4)C2)C3)n1`: the EC50 is greater than 100 µM and the IC50 was greater than 100 µM. In the case of `COc1cc([N+](=O)[O-])ccc1NC(=O)Nc1cc(C)ccn1`, the EC50 was greater than 200 µM and the IC50 is greater than 200 µM. Take `O=C(CC(O)(c1ccccc1)c1ccc(Cl)cc1)NC(=O)c1ccccc1O` (configuration not stated): the EC50 was greater than 13.2 µM and the IC50 was greater than 13.2 µM. With `COc1ccc2ccccc2c1C1=NC(C)(C)CO1`, the EC50 was greater than 977 µM and the IC50 stood at 479 µM. On the same counts, the results for `CCOC(=O)c1cc2c(nc1N)C(=O)CCC2` are greater than 200 µM and 112 µM. On the same counts, the results for `O=C(ON=c1c2ccccc2ccc2ccccc12)c1cc([N+](=O)[O-])cc([N+](=O)[O-])c1` are greater than 200 µM and 20.4 µM.

Regarding `CC1=C(/C(C)=C\C(=O)O)CC2C(C)C(=O)CO[C@H]2C1` (some centres not stated), the result was inactive. On the same count and under the same terms, the entry for `COC(=O)c1cccc2c3ccccc3c3ccccc3c12` is “inactive”. For `CCCCCCCCCCCCCCCC=C(c1cc(Br)cc(C(=O)OC)c1OC)c1cc(Br)cc(C(=O)OC)c1OC`, the EC50 is greater than 25.7 µM and the IC50 is greater than 25.7 µM. As to `c1ccc(-c2ccc(N=NN3CCCC3)cc2)cc1`, the EC50 is greater than 200 µM and the IC50 turned out to be 14.8 µM. On the same counts, the results for `Cn1ccc(C(=O)NCCCCCNC(=O)c2ccn(C)c(=O)c2O)c(O)c1=O` are greater than 200 µM and greater than 200 µM.

With `CC(=O)O[C@H]1CC2CCCC2C2C(=O)OC(=O)C21` (some centres not stated), the outcome was active. Turning to `Cc1ccc(NC(=O)c2[nH]c(=S)nc(N)c2-c2ccccc2C)cc1C`, the EC50 is greater than 692 µM and the IC50 was greater than 692 µM. Consider `COc1cc(/C=C2/SC(c3ccccc3)N(c3ccc(NC(C)=O)cc3)C2=O)cc(OC)c1OC` (configuration not stated), for which the EC50 is greater than 200 µM and the IC50 amounted to 117 µM.

Take `COc1cc(C2c3cc4c(cc3OC(N3CCCCC3)C2C)OCO4)cc(OC)c1OC` (configuration not stated): the EC50 is greater than 50.1 µM and the IC50 came to 0.398 µM. Turning to `COc1cc(-c2cc(-c3cc(C)cc(Cl)c3O)nc3ncnc(N)c23)ccc1O`, the EC50 was greater than 200 µM and the IC50 is 10.7 µM. On to `O=C(NCCn1ccnn1)Nc1ccccc1`, for which the EC50 is greater than 200 µM and the IC50 is greater than 200 µM. For `CC1C(c2ccccc2)NC(c2ccccc2)CC1(N)C#N` (configuration not stated), the EC50 was greater than 123 µM and the IC50 was greater than 123 µM. As for `C/C(=C(/C)c1ccc(O)cc1)c1ccc(O)cc1`, the EC50 was greater than 200 µM and the IC50 was determined as 52.5 µM.

In the case of `COC1/C=C\OC2(C)Oc3c(C)c(O)c4c(c3C2=O)C(=O)C=C(NC(=O)C(C)=C/C=C\C(C)C(O)C(C)C2OC(C)(C)OC(C1C)C2C)C4=O` (configuration not stated), the EC50 is greater than 19.5 µM and the IC50 came to 2.4 µM. On the same counts, the results for `CC1(C)CC(=O)c2c(nc3ccc4ccccc4c3c2-c2ccc(NC(=O)CCC(=O)Nc3ccc(-c4c5c(nc6ccc7ccccc7c46)CC(C)(C)CC5=O)cc3)cc2)C1` are greater than 100 µM and greater than 100 µM.

With `NC(CC(C(=O)O)c1ccccc1)C(=O)O` (configuration not stated), the EC50 was greater than 200 µM and the IC50 was found to be 112 µM. The like results for `N#CC1CC(c2ccccc2)=NC1c1ccccc1` (configuration not stated) were, in that order, greater than 29.5 µM and greater than 29.5 µM.

In the case of `N#CCCC1C(=O)CCCC1=O`, the EC50 was greater than 200 µM and the IC50 is greater than 200 µM. As for `C=CCN1CN(c2ccccc2)C2(CCN(CCCC3(c4ccc(F)cc4)OCCO3)CC2)C1=O`, the EC50 is greater than 200 µM and the IC50 was 11.5 µM.

As for `COc1cc(NC=C2C(=O)OC(C)(C)OC2=O)c(OC)c(C)c1OC`, the EC50 is greater than 200 µM and the IC50 is greater than 200 µM. Take `CC1(C)OC(=O)C(=Cc2ccc(C#N)cc2)C(=O)O1`: the EC50 was greater than 513 µM and the IC50 was found to be 2.29 µM.

Take `C#CC(O)/C=C/C(O)CCCC(O)CC#CC(O)C#CCCCCC(O)/C=C/CCCCCC(=O)CCCCCCCCCCCCCC(O)C(O)C#CC(=O)O` (configuration not stated): the EC50 was greater than 50.1 µM and the IC50 worked out at 28.8 µM. Turning to `CC[C@H]1CN2CCc3cc(OC)c(OC)cc3[C@@H]2C[C@@H]1C[C@@H]1c2cc(OC)c(OC)cc2CCN1N=O`, the outcome was inactive. Regarding `C#CCN(Cc1ccc2nc(-c3ccccc3)c(N)nc2c1)c1cc(OC)c(OC)c(OC)c1`, the EC50 was greater than 21.9 µM and the IC50 is greater than 21.9 µM. For the compound `NCCc1cc2c3c(c1)CCCN3CCC2`, the EC50 is greater than 200 µM and the IC50 is 11.2 µM.

As for `Nc1ccc2c(c1)C(N)c1ccccc1-2` (configuration not stated), the EC50 is greater than 200 µM and the IC50 is 55 µM.

As to `COc1c(C2(c3ccc(F)cc3)SCCCS2)c(=O)c1=O`, the EC50 was greater than 200 µM and the IC50 was greater than 200 µM. For `COc1ccc2c(c1O)C1=CC(=O)CC[C@]13CCN(C)[C@H]3C2`, the EC50 was greater than 832 µM and the IC50 was found to be 661 µM. As to `CC(=O)Oc1c(C)cc2c(c1C)C(C)(C)CN2C(=O)C(C)(C)C`, the EC50 is greater than 200 µM and the IC50 amounted to 66.1 µM.

Take `CC1C(Cl)(Cl)C1(C)/C=C/C1C(C)(C)C1(Cl)Cl` (configuration not stated): the EC50 was greater than 200 µM and the IC50 amounted to 91.2 µM. The like results for `CC1CC(O)c2ccccc2O1` (configuration not stated) were, in that order, greater than 200 µM and greater than 200 µM. Consider `C=CC1CN2CCC1CC2C(=O)c1ccnc2ccccc12` (configuration not stated), for which the EC50 was greater than 200 µM and the IC50 was 97.7 µM. The like results for `NC(=S)N/N=C/C(F)(F)F` were, in that order, greater than 1450 µM and 79.4 µM. With `COc1c2c(cc3c1C1(O)Cc4ccc5c(c4C[N+]1(C)CC3)OCO5)OCO2` (configuration not stated), the EC50 was greater than 61.7 µM and the half-maximal inhibitory concentration (IC50) is greater than 61.7 µM.

For `Cc1ccc(SCC(CF)OCn2cnc3c(N)ncnc32)cc1` (configuration not stated), the EC50 was greater than 200 µM and the IC50 is greater than 200 µM. As for `C=CCC(C(=N)C(C#N)(CC=C)C1=CCCCC1)C1=CCCCC1` (configuration not stated), the EC50 was greater than 97.7 µM and the IC50 came to 81.3 µM.

`Cc1ccc(S(=O)c2cccs2)cc1` (configuration not stated): the EC50 was greater than 1120 µM and the IC50 came out at 182 µM.

Regarding `NNC(=O)CC(=O)Nc1ccc(C(=O)O)cc1`, the EC50 was greater than 200 µM and the IC50 was greater than 200 µM.

With `Cn1c(=O)c2[nH]c(SSc3nc4c([nH]3)c(=O)n(C)c(=O)n4C)nc2n(C)c1=O`, the EC50 is 35.5 µM and the IC50 amounted to 162 µM. The like results for `CCCC(=O)NC(NC1CCCCC1)(C(=O)OCC)C(F)(F)F` (configuration not stated) were, in that order, 191 µM and greater than 200 µM. For the compound `C=C1C(=O)O[C@@H]2[C@H]1CCC(C)=C1C=CC(=O)[C@]12C`, the outcome was inactive. `COc1ccc(NC(=S)N/N=C/c2c(C)n(C)n(-c3ccccc3)c2=O)cc1`: the EC50 is greater than 200 µM and the IC50 worked out at 115 µM. The like results for `COC(=O)C(=O)C(/C=N/C(=S)NC1CCCCC1)=C(\O)c1ccc(F)cc1` were, in that order, greater than 200 µM and greater than 200 µM.

For the compound `Cc1ccc(S(=O)(=O)N2CCNCCN(S(=O)(=O)c3ccc(C)cc3)CCN(S(=O)(=O)c3ccc(C)cc3)CC2)cc1`, the EC50 was greater than 200 µM and the IC50 was greater than 200 µM.

On to `NC(N)=N/N=C/c1ccc[nH]1`, for which the EC50 was greater than 200 µM and the IC50 is greater than 200 µM.

With `O=C1OC(C2Cc3ccccc3C2=O)c2ccccc21` (configuration not stated), the EC50 is greater than 200 µM and the IC50 came out at 186 µM. On the same counts, the results for `[B-][N+]1(C)CC[N+]([B-])(C)CC1` (configuration not stated) are greater than 200 µM and greater than 200 µM. On the same counts, the results for `Nc1nc2c(-c3ccc([N+](=O)[O-])cc3)nnn2c2cccc(Cl)c12` are greater than 3.98 µM and greater than 3.98 µM. The like results for `O=S(=O)(F)c1ccc(Cl)cc1C[P+](c1ccccc1)(c1ccccc1)c1ccccc1` were, in that order, greater than 200 µM and 87.1 µM. Regarding `COc1ccc(/C=C/C(=O)c2cc(C)ccc2OC(C)=O)cc1`, the EC50 is greater than 23.4 µM and the IC50 is 15.8 µM.

On to `N/N=C(\C(=O)Nc1ccc([N+](=O)[O-])cc1)C(C1=Nc2cc([N+](=O)[O-])ccc2NC1)[N+](=O)[O-]` (configuration not stated), for which the EC50 is greater than 30.9 µM and the IC50 is greater than 30.9 µM. As for `O=C(OC12CC3CC(CC(C3)C1)C2)c1ccc(NCc2cc(O)ccc2O)cc1`, the EC50 is greater than 20 µM and the IC50 turned out to be 0.955 µM. For `CN(C)CCNC(=O)c1cccc2c(Nc3ccc(S(=O)(=O)N=C(N)N)cc3)c3ccccc3nc12`, the result was inactive. Consider `COc1ccc(N2C(=O)CC(c3c[nH]c4ccccc34)C2=O)cc1` (configuration not stated), for which the EC50 was greater than 200 µM and the IC50 was 182 µM. The like results for `CN(C)c1ccc(N=Nc2ccc3c(c2)C(=O)c2ccccc2C3=O)cc1` were, in that order, greater than 200 µM and greater than 200 µM. On the same counts, the results for `CCN(CC)CCCCCCNc1cc(C)cc2cccnc12` are greater than 200 µM and 20.9 µM. Turning to `CCOP(=O)(OCC)OC1CC(n2cc(C)c(=O)n(C)c2=O)OC1CO[Si](C)(C)C(C)(C)C` (configuration not stated), the EC50 is greater than 200 µM and the IC50 was 107 µM. As to `Cc1cc(Cl)ccc1Nc1nc2c(s1)C(=O)c1ccccc1C2=O`, the outcome was inactive. Turning to `CC12CCC(C/C1=N\NC(N)=O)C2(C)C` (configuration not stated), the EC50 was greater than 200 µM and the IC50 was greater than 200 µM. With `CN1N=C(c2ccncc2)OC1c1cccc(C(F)(F)F)c1` (configuration not stated), the EC50 is greater than 200 µM and the IC50 worked out at 44.7 µM.
